In brackets after ≈: the same amount, converted by molar mass. Activity calls are given as the source filed them. The calls are words filed in the database; no cut-off is given here.
How the values were obtained:
Pseudomonas aeruginosa = test: Antimicrobial activity against Pseudomonas aeruginosa at 100 ug by paper disk assay; type: functional, organism-based
Bacillus subtilis = test: Antimicrobial activity against Bacillus subtilis at 100 ug by paper disk assay; type: functional, organism-based
Staphylococcus aureus = test: Antimicrobial activity against Staphylococcus aureus at 100 ug by paper disk assay; type: functional, organism-based
Escherichia coli = test: Antimicrobial activity against Escherichia coli at 100 ug by paper disk assay; type: functional, organism-based
Candida albicans = test: Antimicrobial activity against Candida albicans at 100 ug by paper disk assay; type: functional, organism-based
[1] = Cytotoxicity against human 9KB cells; type: functional; conditions: read-out: LD50 (the source's name)

COc1cc(O)c2c(=O)c(C)c(/C=C/c3cc(O)cc(O)c3)oc2c1OC
Activity (Pseudomonas aeruginosa): inactive | Activity (Bacillus subtilis): inactive | Activity (Staphylococcus aureus): inactive | Activity (Escherichia coli): inactive | Activity (Candida albicans): inactive | CC50 [1]: 1 µg/mL (≈ 2.7 µM)
